# Measurements reported in patent publication US12215106B2, “Pharmaceutical compounds and therapeutic methods” (RUTGERS, THE STATE UNIVERSITY OF NEW JERSEY, priority 2018, dated 2025).
# Structures can show the parent of a compound that is named as a salt.
# Tests used:
# phospho-RB = experiment: Western blotting of phospho-RB levels in GBM spheres; assay type: cell-based, human; settings: for phospho-RB (pRB) levels: GBM spheres, 72 hours, Western blotting
# Method: (§1) Cells were lysed in Cell Lysis Buffer (Cell Signaling, #9803) supplemented with Protease Inhibitor Cocktail (Sigma, #P8340), sonicated briefly while on ice and spun down for 30 minutes at 4° C., after which the supernatant was collected. For each sample, 2 uL of lysate was mixed well into 198 uL de-ionized water. Next, 10 uL of this diluted sample was added to a well in a 96 well plate in quadruplets and mixed with Protein Assay Dye Reagent Concentrate (Bio-Rad, #500-0006) (which was diluted 1:5 with water). BSA standards of 25 ng, 50 ng, 100 ng, 200 ng and 250 ng were also used to the plate and mixed with the reagent. The plate was read in a plate reader at 600 nm and samples were calibrated to the standards to determine the concentration of protein. Using the NuPAGE system (Invitrogen), 25 ug of protein was mixed with NuPAGE LDS 4× Sample Buffer (#NP0007), NuPAGE 10× Reducing Agent (#NP0004) and water, mixed well and heated at 96° C. for 15 minutes to denature the protein. The samples were then loaded into 4-12% Bis-Tris gels (Novex (Invitrogen), #0323) with a protein ladder (Novex (Invitrogen) Sharp Pre-stained protein ladder, #57318) and run at 100-120V for about 2 hours with NuPAGE 20×SDS MES Running Buffer (#NP0002) diluted with water. Next, the gel was taken out and loaded into a NuPAGE transfer cassette with a polyvinylidene membrane with NuPAGE 20× Transfer Buffer (#NP0006-1) diluted with water and methanol. Proteins were transferred for 1 hour at 30V at room temperature. Blocking was performed using the Millipore SNAP i.d. Protein Detection system in 0.25% non-fat dry milk in 0.1% Tween in PBS (PBST). Primary antibodies against BMI1 (Cell Signaling, #6964), mouse monoclonal antiphospho-RB, anti-CDK4, anti-STAT1, anti-PD-L1 (1:1,000) (Millipore), and housekeeping control rabbit polyclonal anti-vinculin (1:1000) (Cell Signaling) were incubated overnight with gentle rocking at 4° C. in the blocking solution. The following day, membranes were washed 3 times with PBST in the SNAP i.d. system before being incubated with secondary antibody in blocking buffer for 1 hour at room temperature. Three washes were then performed in the SNAP i.d. system. Protein signals were detected using ECL Western Blotting Substrate (Pierce, #32106) and filmed.
# GBM CSCs are known to be quiescent and therefore resistant to standard chemo/radiotherapy. The retinoblastoma (Rb) tumor suppressor protein regulates cell proliferation by controlling progression through the restriction point within the G1-phase of the cell cycle. Cell cycle-dependent phosphorylation for Ser780 by cyclin D1-CDK4/6 inhibits Rb target binding and allows cell cycle progression.
# BMI1 = experiment: Western blotting of BMI1 protein levels in GBM spheres; assay type: cell-based, human; settings: for BMI1 levels: GBM spheres, 72 hours, Western blotting
# Method: Different GBM cells were treated with DMSO or different concentrations of test compounds for 72 hours. Cells were lysed in Cell Lysis Buffer (Cell Signaling, #9803) supplemented with Protease Inhibitor Cocktail (Sigma, #P8340), spun down for 30 minutes at 4° C., after which the supernatant was collected at every time point indicated. Western blotting analysis was performed on all samples as described above. BMI1 loss started at 6-12 hours, coinciding with an upper shift and hyper-phosphorylation of BMI1 at 12-24 hours and complete depletion at 72 hours.
# as §1, with “GBM cells were treated with DMSO or different concentrations of the test compounds for 72 hours. Cells” for “Cells”, “Primary antibodies against BMI1 (Cell Signaling, #6964), mouse monoclonal antiphospho-RB, anti-CDK4, anti-STAT1, anti-PD-L1 (1:1,000) (Millipore), and housekeeping control rabbit polyclonal anti-vinculin (1:1000) (Cell Signaling) were incubated overnight with gentle rocking at 4° C. in the blocking solution. The following day, membranes were washed 3 times with PBST in the SNAP i.d. system before being incubated with secondary antibody in blocking buffer for 1 hour at room temperature. Three washes were then performed in the SNAP i.d. system.” left out
# BMI1 levels in GBM spheres were then analyzed by Western Blotting over a time-course of 120 hours upon treatment with compound 14 at 7-10 nM conc. […]
SMILES,phospho-RB (pRB) levels (phospho-RB),BMI1 levels (BMI1),"phospho-RB levels, time-course (phospho-RB; 7-10 nM, time-course of 120 hours)","BMI1 protein levels, time-course (BMI1; 7-10 nM, single treatment, time-course of 120 hours)"
"[2H]C([2H])([2H])Oc1ccc(Nc2nc(-c3c(C)nc4ccccn34)cs2)cc1 [Compound 15, N-(4-(methoxy-d3)phenyl)-4-(2-methylimidazo[1,2-c]pyridin-3-yl)thiazol-2-amine hydrochloride]",lowered pRB,slightly lowered BMI1 levels,–,–
"COc1c(F)cc(Nc2nc(-c3c(C)nc4ccccn34)cs2)cc1F [Compound 14, hydrochloride]",lowered pRB,Lowered BMI1 levels,downregulation of phospho-RB levels,"reduction in BMI1 protein levels at 72, 96 and 120 hours"
"[2H]C1([2H])Oc2ccc(Nc3nc(-c4c(C)nc5ccccn45)cs3)cc2O1 [Compound 17, N-(benzo[d][1,3]dioxol-5-yl-2,2-d2)-4-(2-methylimidazo[1,2-c]pyridin-3-yl)thiazol-2-amine hydrochloride]",lowered pRB,Lowered BMI1 levels,–,–
